Reference: US12570613B2, “Imidazoquinoline or benzoindazolone compound and intermediate for preparing same” (LMITO THERAPEUTICS INC., priority 2020, dated 2026)

Biological target: NQO1 protein (Homo sapiens, UniProt P15559)
Assay: In vitro NQO1 enzyme activity assay (cytochrome C reduction, absorbance at 550 nm)
Type: biochemical
Conditions: NQO1 2 ng, 10 nM Compound (Table 1)
Protocol: In order to evaluate the activity of the synthesized compound in NQO1, the experiments were performed as follows:
The synthesized compound was dissolved in DMSO to make a 10 mM stock solution, which was further diluted with DMSO to 250 μM so as to prepare a working solution. For experimental groups, the working solution of the compound was added to an enzyme reaction solution in which 50 μL of 1.54 mM Cytochrome C solution was added to 900 μL of 50 mM Tris-HCl (pH7.5) containing 0.14% BSA. For negative control groups, DMSO not containing the compound of the invention was added to the enzyme reaction solution as above. For each experimental and control group, 20 μL of 100 ng/mL NQO1 protein was added, and then 10 μL of 20 mM NADH was added to bring up the total volume to 1 mL. The change of absorbance was measured at 550 nm for 10 minutes using 1 mL cuvette. The kinetics of reaction was measured by the increase of absorbance as the cytochrome C was reduced at 550 nm over 10 minutes. The activity of NQO1 was measured by the amount of cytochrome C that is being reduced (nmol cytochrome C that was reduced/min/ug NQO1 protein). • Absorption coefficient of Cytochrome C: 21.1 (μmol/mL)^−1cm^−1 • BSA: Bovine Serum Albumin • […]: Tris(hydroxymethyl)aminomethane hydrochloride (buffer solution) • Equipment=Cary 100 UV-Vis Spectrophotometer • The results are shown in Tables 1 to 8.

Sequence of NQO1 protein (P15559 whole entry, species assumed): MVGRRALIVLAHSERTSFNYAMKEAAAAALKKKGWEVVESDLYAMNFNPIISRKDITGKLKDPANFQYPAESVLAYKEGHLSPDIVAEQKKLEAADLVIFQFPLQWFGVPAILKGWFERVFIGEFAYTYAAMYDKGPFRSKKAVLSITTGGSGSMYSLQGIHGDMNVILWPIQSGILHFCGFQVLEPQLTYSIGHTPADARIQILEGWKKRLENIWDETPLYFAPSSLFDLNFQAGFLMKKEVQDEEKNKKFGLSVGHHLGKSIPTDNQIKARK

Row | Structure (SMILES) | NQO1 activity assay Cytochrome C reduced/min/μg NQO1 protein
1 | CN(C)C(=O)c1nc2n(c1-c1ccccc1)-c1ccccc1C(=O)C2=O [Compound 7, N,N-dimethyl-4,5-dioxo-1-phenyl-4,5-dihydroimidazo[1,2-a]quinolin-2-carboxamide] | 96 nmol cytochrome C that was reduced/min/ug NQO1 protein
2 | Cc1ccc(-n2nc(C)c3c2-c2ccccc2C(=O)C3=O)cc1 [Compound 29, 3-Methyl-1-p-tolyl-1H-benzo[g]indazol-4,5-dione] | 668 nmol cytochrome C that was reduced/min/ug NQO1 protein
3 | O=C1C(=O)c2ncc(-c3ccc(F)cc3)n2-c2ccccc21 [Compound 2, 1-(4-Fluorophenyl)imidazo[1,2-a]quinolin-4,5-dione] | 455 nmol cytochrome C that was reduced/min/ug NQO1 protein
4 | CCCCCCCc1nn(-c2ccccc2)c2c1C(=O)C(=O)c1ccccc1-2 [Compound 11, 3-Heptyl-1-phenyl-1H-benzo[g]indazol-4,5-dione] | 203 nmol cytochrome C that was reduced/min/ug NQO1 protein
5 | O=C1C(=O)c2c(-c3ccc(F)cc3)nn(-c3ccccc3)c2-c2ccccc21 [Compound 14, 3-(4-Fluorophenyl)-1-phenyl-1H-benzo[g]indazol-4,5-dione] | 156 nmol cytochrome C that was reduced/min/ug NQO1 protein
6 | Cc1nn(-c2ccccc2)c2c1C(=O)C(=O)c1cc(F)ccc1-2 [Compound 35, 7-Fluoro-3-methyl-1-phenyl-1H-benzo[g]indazol-4,5-dione] | 694 nmol cytochrome C that was reduced/min/ug NQO1 protein
7 | Cc1nn(-c2ccccn2)c2c1C(=O)C(=O)c1ccccc1-2 [Compound 30, 3-Methyl-1-(pyridin-2-yl)-1H-benzo[g]indazol-4,5-dione] | 494 nmol cytochrome C that was reduced/min/ug NQO1 protein
8 | Cc1nn(-c2ccc(F)cc2)c2c1C(=O)C(=O)c1ccccc1-2 [Compound 25, 1-(4-Fluorophenyl)-3-methyl-1H-benzo[g]indazol-4,5-dione] | 463 nmol cytochrome C that was reduced/min/ug NQO1 protein
9 | Cc1nn(-c2cc(F)cc(F)c2)c2c1C(=O)C(=O)c1ccccc1-2 [Compound 27, 1-(3,5-Difluorophenyl)-3-methyl-1H-benzo[g]indazol-4,5-dione] | 415 nmol cytochrome C that was reduced/min/ug NQO1 protein
10 | O=C1C(=O)c2c(CBr)nn(-c3ccccc3)c2-c2ccccc21 [Compound 16, 3-(Bromomethyl)-1-phenyl-1H-benzo[g]indazol-4,5-dione] | 596 nmol cytochrome C that was reduced/min/ug NQO1 protein
11 | CN(C)Cc1nn(-c2ccccc2)c2c1C(=O)C(=O)c1ccccc1-2 [Compound 17, 3-((Dimethylamino)methyl)-1-phenyl-1H-benzo[g]indazol-4,5-dione] | 254 nmol cytochrome C that was reduced/min/ug NQO1 protein
12 | CC(C)c1nn(-c2ccccc2)c2c1C(=O)C(=O)c1ccccc1-2 [Compound 10, 3-Isopropyl-1-phenyl-1H-benzo[g]indazol-4,5-dione] | 138 nmol cytochrome C that was reduced/min/ug NQO1 protein
13 | O=C1C(=O)c2ncc(-c3ccc(C(F)(F)F)cc3)n2-c2ccccc21 [Compound 4, 1-(4-(Trifluoromethyl)phenyl)imidazo[1,2-a]quinoline-4,5-dione] | 170 nmol cytochrome C that was reduced/min/ug NQO1 protein
14 | CCOC(=O)c1nc2n(c1-c1ccccc1)-c1ccccc1C(=O)C2=O [Compound 6, Ethyl 4,5-dioxo-1-phenyl-4,5-dihydroimidazo[1,2-a]quinolin-2-carboxylate] | 916 nmol cytochrome C that was reduced/min/ug NQO1 protein
15 | Cc1nn(-c2cccnc2)c2c1C(=O)C(=O)c1ccccc1-2 [Compound 31, 3-Methyl-1-(pyridin-3-yl)-1H-benzo[g]indazol-4,5-dione] | 900 nmol cytochrome C that was reduced/min/ug NQO1 protein

Same assay, conditions: NQO1 2 ng, 50 nM Compound (Table 2)

Row | Structure (SMILES) | NQO1 activity assay Cytochrome C reduced/min/μg NQO1 protein
16 | Cc1nn(-c2ccc(C(=O)O)cc2)c2c1C(=O)C(=O)c1ccccc1-2 [Compound 37, 4-(3-Methyl-4,5-dioxo-4,5-dihydro-1H-benzo[g]indazol-1-yl)benzoic acid] | 1034 nmol cytochrome C that was reduced/min/ug NQO1 protein
17 | Cc1nn(CCc2ccccc2)c2c1C(=O)C(=O)c1ccccc1-2 [Compound 64, 3-Methyl-1-phenethyl-1H-benzo[g]indazol-4,5-dione] | 2081 nmol cytochrome C that was reduced/min/ug NQO1 protein

Same assay, conditions: NQO1 2 ng, 50 nM Compound (Table 3)

Row | Structure (SMILES) | NQO1 activity assay Cytochrome C reduced/min/μg NQO1 protein
18 | Cc1c2c(nn1S(=O)(=O)c1ccccc1)-c1ccccc1C(=O)C2=O [Compound 44, 3-Methyl-2-(phenylsulfonyl)-2H-benzo[g]indazol-4,5-dione] | 2169 nmol cytochrome C that was reduced/min/ug NQO1 protein
19 | Cc1c2c(nn1-c1ccncc1)-c1ccccc1C(=O)C2=O [Compound 42, 3-Methyl-2-(pyridin-4-yl)-2H-benzo[g]indazol-4,5-dione] | 3212 nmol cytochrome C that was reduced/min/ug NQO1 protein

Same assay, conditions: NQO1 2 ng, 50 nM Compound (Table 4)

Row | Structure (SMILES) | NQO1 activity assay Cytochrome C reduced/min/μg NQO1 protein
20 | Cc1nn(CCc2ccc(F)cc2)c2c1C(=O)C(=O)c1ccccc1-2 [Compound 65, 1-(4-Fluorophenethyl)-3-methyl-1H-benzo[g]indazol-4,5-dione] | 3714 nmol cytochrome C that was reduced/min/ug NQO1 protein
21 | Cc1c2c(nn1CCc1ccc(F)cc1)-c1ccccc1C(=O)C2=O [Compound 66, 2-(4-Fluorophenethyl)-3-methyl-2H-benzo[g]indazol-4,5-dione] | 3001 nmol cytochrome C that was reduced/min/ug NQO1 protein

Same assay, conditions: NQO1 2 ng, 50 nM Compound (Table 5)

Row | Structure (SMILES) | NQO1 activity assay Cytochrome C reduced/min/μg NQO1 protein
22 | Cc1c2c(nn1S(=O)(=O)c1ccc(F)cc1)-c1ccccc1C(=O)C2=O [Compound 45, 3-Methyl-2-(4-Fluorophenylsulfonyl)-2H-benzo[g]indazol-4,5-dione] | 2092 nmol cytochrome C that was reduced/min/ug NQO1 protein

Same assay, conditions: NQO1 2 ng, 50 nM Compound (Table 7)

Row | Structure (SMILES) | NQO1 activity assay Cytochrome C reduced/min/μg NQO1 protein
23 | Cc1c2c(nn1S(=O)(=O)c1ccc([N+](=O)[O-])cc1)-c1ccccc1C(=O)C2=O [Compound 56, 3-Methyl-2-(4-nitrophenylsulfonyl)-2H-benzo[g]indazol-4,5-dione] | 1839 nmol cytochrome C that was reduced/min/ug NQO1 protein
24 | Cc1c2c(nn1S(=O)(=O)C1CCCC1)-c1ccccc1C(=O)C2=O [Compound 54, 2-(Cyclopentylsulfonyl)-3-methyl-2H-benzo[g]indazol-4,5-dione] | 1295 nmol cytochrome C that was reduced/min/ug NQO1 protein
25 | COC(=O)c1ccc(S(=O)(=O)n2nc3c(c2C)C(=O)C(=O)c2ccccc2-3)cc1 [Compound 52, Methyl 4-(3-methyl-4,5-dioxo-4,5-dihydro-2H-benzo[g]indazol-2-ylsulfonyl)benzoate] | 2179 nmol cytochrome C that was reduced/min/ug NQO1 protein

Same assay, conditions: NQO1 2 ng, 50 nM Compound (Table 8)

Row | Structure (SMILES) | NQO1 activity assay Cytochrome C reduced/min/μg NQO1 protein
26 | Cc1ccc(CCn2nc3c(c2C)C(=O)C(=O)c2ccccc2-3)cc1 [Compound 69, 3-Methyl-2-(4-methylphenethyl)-2H-benzo[g]indazol-4,5-dione] | 2460 nmol cytochrome C that was reduced/min/ug NQO1 protein
27 | Cc1c2c(nn1S(=O)(=O)c1ccc(F)c(F)c1)-c1ccccc1C(=O)C2=O [Compound 58, 2-(3,4-Difluorophenylsulfonyl)-3-methyl-2H-benzo[g]indazol-4,5-dione] | 1913 nmol cytochrome C that was reduced/min/ug NQO1 protein
28 | Cc1c2c(nn1S(=O)(=O)N1CCOCC1)-c1ccccc1C(=O)C2=O [Compound 62, 3-Methyl-2-(morpholinosulfonyl)-2H-benzo[g]indazol-4,5-dione] | 1916 nmol cytochrome C that was reduced/min/ug NQO1 protein
29 | Cc1c2c(nn1S(=O)(=O)c1nccn1C)-c1ccccc1C(=O)C2=O [Compound 61, 3-Methyl-2-(1-methyl-1H-imidazol-2-ylsulfonyl)-2H-benzo[g]indazol-4,5-dione] | 2289 nmol cytochrome C that was reduced/min/ug NQO1 protein
